Experimental findings from patent publication US9695154B2, “Heteroaryl inhibitors of sumo activating enzyme” (MILLENNIUM PHARMACEUTICALS, INC., priority 2013, dated 2017) are described below.

This assay deals with T1, recombinant human SAE enzyme (Homo sapiens, UniProt Q9UBT2).
T1 sequence (Q9UBT2 1-640): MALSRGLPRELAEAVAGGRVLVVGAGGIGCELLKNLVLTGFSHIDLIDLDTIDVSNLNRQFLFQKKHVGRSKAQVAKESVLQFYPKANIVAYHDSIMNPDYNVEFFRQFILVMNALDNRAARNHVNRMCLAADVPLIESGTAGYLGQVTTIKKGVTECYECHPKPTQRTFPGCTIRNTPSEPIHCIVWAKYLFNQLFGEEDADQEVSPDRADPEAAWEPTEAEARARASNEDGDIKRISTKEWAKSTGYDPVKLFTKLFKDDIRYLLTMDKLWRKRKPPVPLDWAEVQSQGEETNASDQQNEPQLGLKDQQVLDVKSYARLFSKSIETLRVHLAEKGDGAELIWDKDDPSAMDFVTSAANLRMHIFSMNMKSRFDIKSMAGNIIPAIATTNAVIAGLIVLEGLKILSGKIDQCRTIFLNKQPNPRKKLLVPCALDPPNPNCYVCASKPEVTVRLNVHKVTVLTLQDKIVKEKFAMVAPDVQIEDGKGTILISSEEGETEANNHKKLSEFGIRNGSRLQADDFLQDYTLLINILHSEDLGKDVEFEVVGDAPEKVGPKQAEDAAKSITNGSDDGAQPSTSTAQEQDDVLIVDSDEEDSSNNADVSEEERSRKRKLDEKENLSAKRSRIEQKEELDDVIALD
T1 sequence (Q9UBE0 1-346 partner): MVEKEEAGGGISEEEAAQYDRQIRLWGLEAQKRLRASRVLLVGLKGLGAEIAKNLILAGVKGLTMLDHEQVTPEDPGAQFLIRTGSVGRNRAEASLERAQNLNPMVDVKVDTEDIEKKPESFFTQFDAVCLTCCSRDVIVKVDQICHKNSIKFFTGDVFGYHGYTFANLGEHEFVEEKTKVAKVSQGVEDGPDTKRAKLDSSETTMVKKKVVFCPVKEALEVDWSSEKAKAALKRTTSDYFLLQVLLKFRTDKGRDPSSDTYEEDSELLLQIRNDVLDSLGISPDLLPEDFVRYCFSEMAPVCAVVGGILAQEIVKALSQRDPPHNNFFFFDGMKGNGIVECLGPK
Put plainly: SAE HTRF Enzyme Assay. The note with it: for IC50: class symbols A-C; for Percent Inhibition / inhibition at 0.111 µM: compound concentration 0.111 μM; for Percent Inhibition: 0.111 µM; for inhibition at 0.111 µM: read-out: Percent Inhibition. The assay is classed as biochemical. The procedure:
The SAE enzymatic reaction totals 50 μl and contains 50 mM HEPES Hemisodium (pH 7.5), 0.05% BSA, 5 mM MgCl2, 0.5 μM ATP, 250 μM GSH, 0.01 μM Ubc9-GST, 0.125 μM Sumo-Flag and 0.11 nM recombinant human SAE enzyme. The enzymatic reaction mixture with and without inhibitor, Is incubated at 24° C. for 105 min in a 384-well plate before termination with […] of Stop/Detection buffer (0.1M HEPES Hemisodium pH 7.5, 0.05% Tween20, 20 mM EDTA, 410 mM KF, 0.53 nM Europium-Cryptate labeled monoclonal anti-Flag M2 Antibody (CisBio International) and 8.125 μg/ml PHYCOLINK goat anti-GST allophycocyanin (XL-APC) antibody (Prozyme)). After incubation for 2 hours at 24° C., quantification of FRET is performed on the Pherostar™ (BMG Labtech). Percentage inhibition values at a single concentration or enzyme inhibition (IC50) values are determined from those curves. One skilled in the art will appreciate that the values generated either as percentage inhibition at a single concentration or IC50 values are subject to experimental variation.

Take `CC(c1ccc(Cl)o1)n1ccc(C(=O)c2cncnc2N[C@@H]2C[C@H](COS(N)(=O)=O)[C@@H](O)C2)n1` (single isomer, unassigned) [Compound I-79, [(1R,2S,4R)-4-{[5-({1-[(1S)-1-(5-chloro-2-furyl)ethyl]-1H-pyrazol-3-yl}carbonyl)pyrimidin-4-yl]amino}-2-hydroxycyclopentyl]methyl sulfamate or [(1R,2S,4R)-4-{[5-({1-[(1R)-1-(5-chloro-2-furyl)ethyl]-1H-pyrazol-3-yl}carbonyl)pyrimidin-4-yl]amino}-2-hydroxycyclopentyl]methyl sulfamate]: the IC50 was less than 10 nM and the “Percent Inhibition” value stood at 98%.
For `CC#CC(C)n1ccc(C(=O)c2cncnc2N[C@@H]2C[C@H](COS(N)(=O)=O)[C@@H](O)C2)n1` (single isomer, unassigned) [Compound I-86, {(1R,2S,4R)-2-hydroxy-4-[(5-{[1-(2S)-(pent-3-yn-2-yl)-1H-pyrazol-3-yl]carbonyl}pyrimidin-4-yl)amino]cyclopentyl}methyl sulfamate or {(1R,2S,4R)-2-hydroxy-4-[(5-{[1-(2R)-(pent-3-yn-2-yl)-1H-pyrazol-3-yl]carbonyl}pyrimidin-4-yl)amino]cyclopentyl}methyl sulfamate], in that order: 100 to 1000 nM and 35%.
For `CC(c1cccc(Cl)c1)n1ccc(C(=O)c2cncnc2N[C@@H]2C[C@H](COS(N)(=O)=O)[C@@H](O)C2)n1` (single isomer, unassigned) [Compound I-133, [(1R,2S,4R)-4-{[5-({1-[(1S)-1-(3-chlorophenyl)ethyl]-1H-pyrazol-3-yl}carbonyl)pyrimidin-4-yl]amino}-2-hydroxycyclopentyl]methyl sulfamate or [(1R,2S,4R)-4-{[5-({1-[(1R)-1-(3-chlorophenyl)ethyl]-1H-pyrazol-3-yl}carbonyl)pyrimidin-4-yl]amino}-2-hydroxycyclopentyl]methyl sulfamate], in that order: 10 to 100 nM and 61%.
For `Cc1cc(C(=O)c2cncnc2N[C@@H]2C[C@H](COS(N)(=O)=O)[C@@H](O)C2)nn1C(C)c1cccc(Cl)c1` (single isomer, unassigned) [Compound I-172, [(1R,2S,4R)-4-{[5-({1-[(1R)-1-(3-chlorophenyl)ethyl]-5-methyl-1H-pyrazol-3-yl}carbonyl)pyrimidin-4-yl]amino}-2-hydroxycyclopentyl]methyl sulfamate or [(1R,2S,4R)-4-{[5-({1-[(1S)-1-(3-chlorophenyl)ethyl]-5-methyl-1H-pyrazol-3-yl}carbonyl)pyrimidin-4-yl]amino}-2-hydroxycyclopentyl]methyl sulfamate], the IC50 lay in the range of 10 to 100 nM and the inhibition at 0.111 µM was 83%.
For `CCC(c1cccc(Br)c1)n1ccc(C(=O)c2cncnc2N[C@@H]2C[C@H](COS(N)(=O)=O)[C@@H](O)[C@@H]2F)c1` (single isomer, unassigned) [Compound I-175, [(1R,2R,3R,4R)-4-{[5-({1-[(1S)-1-(3-bromophenyl)propyl]-1H-pyrrol-3-yl}carbonyl)pyrimidin-4-yl]amino}-3-fluoro-2-hydroxycyclopentyl]methyl sulfamate or [(1R,2R,3R,4R)-4-{[5-({1-[(1R)-1-(3-bromophenyl)propyl]-1H-pyrrol-3-yl}carbonyl)pyrimidin-4-yl]amino}-3-fluoro-2-hydroxycyclopentyl]methyl sulfamate], in that order: less than 10 nM and 99%.
On to `CC(c1cccc(Br)c1)n1ccc(C(=O)c2cncnc2N[C@@H]2C[C@H](COS(N)(=O)=O)[C@@H](O)[C@@H]2F)c1` (single isomer, unassigned) [Compound I-192, [(1R,2R,3R,4R)-4-{[5-({1-[(1S)-1-(3-bromophenyl)ethyl]-1H-pyrrol-3-yl}carbonyl)pyrimidin-4-yl]amino}-3-fluoro-2-hydroxycyclopentyl]methyl sulfamate or [(1R,2R,3R,4R)-4-{[5-({1-[(1R)-1-(3-bromophenyl)ethyl]-1H-pyrrol-3-yl}carbonyl)pyrimidin-4-yl]amino}-3-fluoro-2-hydroxycyclopentyl]methyl sulfamate], for which the IC50 is less than 10 nM and the inhibition at 0.111 µM came out at 98%.
Take `CC(c1ccc(C(F)(F)F)o1)n1ccc(C(=O)c2cncnc2N[C@@H]2C[C@H](COS(N)(=O)=O)[C@@H](O)[C@@H]2F)c1` (single isomer, unassigned) [Compound I-304, [(1R,2R,3R,4R)-3-fluoro-2-hydroxy-4-({5-[(1-{(1S)-1-[5-(trifluoromethyl)-2-furyl]ethyl}-1H-pyrrol-3-yl)carbonyl]pyrimidin-4-yl}amino)cyclopentyl]methyl sulfamate or [(1R,2R,3R,4R)-3-fluoro-2-hydroxy-4-({5-[(1-{(1R)-1-[5-(trifluoromethyl)-2-furyl]ethyl}-1H-pyrrol-3-yl)carbonyl]pyrimidin-4-yl}amino)cyclopentyl]methyl sulfamate]: the IC50 is 10 to 100 nM and the inhibition at 0.111 µM stood at 91%.
For `CC(c1cccc(Br)c1)n1ccc(C(=O)c2cncnc2N[C@@H]2C[C@H](COS(N)(=O)=O)[C@@H](O)C2)n1` (single isomer, unassigned) [Compound I-315, [(1R,2S,4R)-4-{[5-({1-[(1S)-1-(3-bromophenyl)ethyl]-1H-pyrazol-3-yl}carbonyl)pyrimidin-4-yl]amino}-2-hydroxycyclopentyl]methyl sulfamate or [(1R,2S,4R)-4-{[5-({1-[(1R)-1-(3-bromophenyl)ethyl]-1H-pyrazol-3-yl}carbonyl)pyrimidin-4-yl]amino}-2-hydroxycyclopentyl]methyl sulfamate], in that order: less than 10 nM and 99%.
For `NS(=O)(=O)OC[C@H]1C[C@@H](Nc2ncncc2C(=O)c2ccn(C3CCc4ccccc43)n2)[C@H](O)[C@@H]1O` (single isomer, unassigned) [Compound I-323, {(1R,2R,3S,4R)-4-[(5-{[1-((1R)-2,3-dihydro-1H-inden-1-yl)-1H-pyrazol-3-yl]carbonyl}pyrimidin-4-yl)amino]-2,3-dihydroxycyclopentyl}methyl sulfamate or {(1R,2R,3S,4R)-4-[(5-{[1-((1S)-2,3-dihydro-1H-inden-1-yl)-1H-pyrazol-3-yl]carbonyl}pyrimidin-4-yl)amino]-2,3-dihydroxycyclopentyl}methyl sulfamate], in that order: 10 to 100 nM and 82%.
For `CC(c1ccc(Cl)o1)n1ccc(C(=O)c2cncnc2N[C@@H]2C[C@H](COS(N)(=O)=O)[C@@H](O)[C@@H]2F)c1` (single isomer, unassigned) [Compound I-350, [(1R,2R,3R,4R)-4-{[5-({1-[(1S)-1-(5-chloro-2-furyl)ethyl]-1H-pyrrol-3-yl}carbonyl)pyrimidin-4-yl]amino}-3-fluoro-2-hydroxycyclopentyl]methyl sulfamate or [(1R,2R,3R,4R)-4-{[5-({1-[(1R)-1-(5-chloro-2-furyl)ethyl]-1H-pyrrol-3-yl}carbonyl)pyrimidin-4-yl]amino}-3-fluoro-2-hydroxycyclopentyl]methyl sulfamate], in that order: less than 10 nM and 96%.
Regarding `CC(c1ccccc1)n1ccc(C(=O)c2cncnc2N[C@@H]2C[C@H](COS(N)(=O)=O)[C@@H](O)[C@H]2O)n1` (single isomer, unassigned) [Compound I-351, {(1R,2R,3S,4R)-2,3-dihydroxy-4-[(5 -{[1-((1S)-1-phenylethyl)-1H-pyrazol-3-yl]carbonyl}pyrimidin-4-yl)amino]cyclopentyl}methyl sulfamate or {(1R,2R,3S,4R)-2,3-dihydroxy-4-[(5-{[1-((1R)-1-phenylethyl)-1H-pyrazol-3-yl]carbonyl}pyrimidin-4-yl)amino]cyclopentyl}methyl sulfamate], the IC50 was less than 10 nM and the inhibition at 0.111 µM stood at 97%.
